Twelve compounds from ChEMBL document CHEMBL4627407, “Identification of a Potent Oridonin Analogue for Treatment of Triple-Negative Breast Cancer” (J Med Chem, 2020) can be followed below.

pIC50: −log10 of the molar value. The source made the active and inactive calls. The calls are words filed in the database; no cut-off is given here.

In general, pIC50 refers to the IC50 on a negative log10 scale, so that one unit is a factor of ten.

Series [1] relates to HCC1806. As to the kind of experiment: Antitumor activity against human HCC1806 cells in ICR mouse assessed as tumor shrinkage at 6 mg/kg, iv administered once per 2 days for 23 consecutive days by TUNEL based immunohistochemical analysis. Type of series: functional, organism-based.
For series [2], the system named is HCC1806. As to the kind of experiment: Antitumor activity against human HCC1806 cells harboring luciferase gene xenografted in ICR mouse assessed as shrunken tumor tissue at 6 mg/kg, iv administered once per 2 days for 21 consecutive days and measured once every week. Type of series: functional, organism-based. For orientation: In xenograft studies the graft and the host belong to different species.

The test system of series [3] is HCC1806. As to the kind of experiment: Antitumor activity against human HCC1806 cells in ICR mouse assessed as tumor shrinkage at 6 mg/kg, iv administered once per 2 days for 23 consecutive days by hematoxylin and eosin staining based histopathological assay. Type of series: functional, organism-based.
For series [4], the system named is HCC1806. As to the kind of experiment: Antitumor activity against human HCC1806 cells in ICR mouse assessed as tumor shrinkage at 6 mg/kg, iv administered once per 2 days for 23 consecutive days by Ki67 staining-based immunohistochemical analysis. Type of series: functional, organism-based.
The subject of series [5] is HCC1806. As to the kind of experiment: Antitumor activity against human HCC1806 cells in ICR mouse assessed as reduction in tumor weight at 6 mg/kg, iv administered once per 2 days for 23 consecutive days and measured every 2 days relative to control. Type of series: functional. More on the design: scale not given: the % may be the effect or the level left.
The test system of series [6] is HCC1806. As to the kind of experiment: Antitumor activity against human HCC1806 cells in ICR mouse assessed as increase in apoptosis in tumor at 6 mg/kg, iv administered once per 2 days for 23 consecutive days by TUNEL based immunohistochemical analysis. The class given is functional, organism-based.
For series [7], the system named is HCC1806. As to the kind of experiment: Antitumor activity against human HCC1806 cells in ICR mouse assessed as increase in apoptosis in tumor at 6 mg/kg, iv administered once per 2 days for 23 consecutive days by Ki67 staining-based immunohistochemical analysis. Type of series: functional, organism-based.
Series [8] can be described thus: Toxicity in ICR mouse assessed as reduction in body weight at 6 mg/kg, iv administered once per 2 days for 23 consecutive days and measured every 2 days. Type of series: organism-based. As to conditions: in vivo, 48 h.
Series [9] relates to HCC1806. As to the kind of experiment: Antitumor activity against human HCC1806 cells in ICR mouse assessed as increase in apoptosis in tumor at 6 mg/kg, iv administered once per 2 days for 23 consecutive days by hematoxylin and eosin staining based histopathological assay. The class given is functional, organism-based.
The test system of series [10] is DU-4475. As to the kind of experiment: Antiproliferative activity against human DU4475 cells after 72 hrs by MTT assay. The class given is functional, cell-based. The note with it: DU-4475, 72 h.
Series [11] relates to HCC1806. As to the kind of experiment: Potency index, ratio of oridonin IC50 to compound IC50 for antiproliferative activity against human HCC1806 cells after 72 hrs by MTT assay. Type of series: functional. (In general: Tetrazolium assays rely on reduction of a dye to a coloured formazan, in cell work by metabolically active cells.)
The test system of series [12] is DU-4475. As to the kind of experiment: Potency index, ratio of oridonin IC50 to compound IC50 for antiproliferative activity against human DU4475 cells after 72 hrs by MTT assay. Type of series: functional.
The test system of series [13] is HCC1806. As to the kind of experiment: Antiproliferative activity against human HCC1806 cells after 72 hrs by MTT assay. The class given is functional, cell-based. As to conditions: HCC1806, 72 h.
The subject of series [14] is MDA-MB-231. As to the kind of experiment: Potency index, ratio of oridonin IC50 to compound IC50 for antiproliferative activity against human MDA-MB-231 cells after 72 hrs by MTT assay. Type of series: functional.
The test system of series [15] is MDA-MB-231. As to the kind of experiment: Antiproliferative activity against human MDA-MB-231 cells after 72 hrs by MTT assay. Type of series: functional, cell-based. As to conditions: MDA-MB-231, 72 h.
Series [16] has as its system MDA-MB-468. As to the kind of experiment: Potency index, ratio of oridonin IC50 to compound IC50 for antiproliferative activity against human MDA-MB-468 cells after 72 hrs by MTT assay. The class given is functional.
Series [17] has as its system MDA-MB-468. As to the kind of experiment: Antiproliferative activity against human MDA-MB-468 cells after 72 hrs by MTT assay. Type of series: functional, cell-based. As to conditions: MDA-MB-468, 72 h.
A further series deals with HCC1937. As to the kind of experiment: Antiproliferative activity against human HCC1937 cells after 72 hrs by MTT assay. The class given is functional, cell-based. The note with it: HCC1937, 72 h.
Another series concerns T47D. As to the kind of experiment: Antiproliferative activity against human T47D cells after 72 hrs by MTT assay. The class given is functional, cell-based.
Another series deals with MDA-MB-453. As to the kind of experiment: Antiproliferative activity against human MDA-MB-453 cells after 72 hrs by MTT assay. The class given is functional, cell-based. As to conditions: MDA-MB-453, 72 h.
The subject of another series is NCI/ADR-RES. As to the kind of experiment: Antiproliferative activity against human MCF7/ADR cells after 72 hrs by MTT assay. Type of series: functional, cell-based.
The subject of the next series is SK-BR-3. As to the kind of experiment: Antiproliferative activity against human SK-BR-3 cells after 72 hrs by MTT assay. Type of series: functional, cell-based. The note with it: SK-BR-3, 72 h.

For `CC(=O)O[C@H]1C(=O)[C@@]2(C)[C@H]([C@H](OC(=O)c3ccccc3)[C@]3(O)C[C@H](OC(=O)[C@H](O)[C@@H](NC(=O)c4ccccc4)c4ccccc4)C(C)=C1C3(C)C)[C@]1(OC(C)=O)CO[C@@H]1C[C@@H]2O` [PACLITAXEL], the outcome in the series with HCC1806 [1], with HCC1806 [2], in the series with HCC1806 [3], with HCC1806 [4], with HCC1806 [6] and with HCC1806 [7] was Active. Besides, the result in the series on HCC1806 [9] was Active. Further, the Activity in the series on HCC1806 [5] is recorded as 66%; in series [8], “Toxic”.
For `C=C1C(=O)[C@]23[C@H](O)[C@H]1CC[C@H]2[C@]12C=CCC(C)(C)[C@H]1[C@H](O)[C@@]3(O)OC2`, the pIC50 was 5.79 in the series on DU-4475 [10], 5.63 with HCC1806 [13], 5.63 in the series on MDA-MB-231 [15] and 5.84 with MDA-MB-468 [17]. For the same compound, the “Ratio IC50” value with HCC1806 [11], with DU-4475 [12], with MDA-MB-231 [14] and in the series with MDA-MB-468 [16] was 6 - 12 each time.
Take `C=C1C(=O)[C@@]23C(=O)[C@@H]4OC[C@]5(C=CCC(C)(C)[C@@H]45)[C@@H]2CC[C@@H]1[C@H]3OC(=O)C=C(C)C`: the pIC50 with DU-4475 [10] was 5.57; with HCC1806 [13] it was 5.51; with MDA-MB-231 [15], 5.68; in the series on MDA-MB-468 [17] it was 5.55.
Consider `C=C1C(=O)[C@]23[C@H](O)[C@H]1CC[C@H]2[C@]12CCCC(C)(C)[C@H]1[C@H](O)[C@@]3(O)OC2`, for which the pIC50 is 5.63 in the series on DU-4475 [10], 5.62 with HCC1806 [13], 5.53 in the series on MDA-MB-231 [15] and 5.65 in the series on MDA-MB-468 [17]. Further, the “Ratio IC50” value in the series on HCC1806 [11], in the series with DU-4475 [12], with MDA-MB-231 [14] and in the series with MDA-MB-468 [16] was 6 - 12 each time.
For the compound `C=C1C(=O)[C@]23[C@H](O)[C@H]1CC[C@H]2[C@@]12CO[C@]3(O)[C@@H](O)[C@@H]1C(C)(C)CC[C@@H]2O` [ORIDONIN], the pIC50 is 4.77 with DU-4475 [10]; 4.66 in the series with HCC1806 [13]; 5.08 with HCC1937; 5.12 with T47D; 5.18 in the series on MDA-MB-453; 4.75 with MDA-MB-231 [15]. The values for the pIC50 in the series with NCI/ADR-RES, in the series with SK-BR-3 and in the series with MDA-MB-468 [17] were 4.58, 5.07 and 4.76, respectively.
In the case of `C=C1C(=O)[C@@]23C(=O)[C@@H]4OC[C@]5(C=CCC(C)(C)[C@@H]45)[C@@H]2CC[C@@H]1[C@H]3OC(=O)/C=C/c1ccnc(F)c1`, the pIC50 with DU-4475 [10] is 6.03; in the series on HCC1806 [13], 5.95; with MDA-MB-231 [15], 6.15; in the series on MDA-MB-468 [17] it was 5.99.
The like results for `C=C1C(=O)[C@@]23C(=O)[C@@H](OC(C)=O)[C@@H]4C(C)(C)CC=C[C@@]4(COC(C)=O)[C@@H]2CC[C@@H]1[C@H]3OC(C)=O` were, in that order, 5.72, 5.62, 5.43 and 5.78.
In the same order, the values of `C=C1C(=O)[C@@]23C(=O)[C@@H]4OC[C@]5(C=CCC(C)(C)[C@@H]45)[C@@H]2CC[C@@H]1[C@H]3OC(C)=O` are 6.12, 6.00, 6.02 and 6.10.
As for `C=C1C(=O)[C@]23[C@H](O)[C@H]1CC[C@H]2[C@]12CCCC(C)(C)[C@H]1C[C@@]3(O)OC2`, the negative logarithm of the IC50 (pIC50) with DU-4475 [10] was 5.73; with HCC1806 [13] it was 5.53; in the series on MDA-MB-231 [15], 5.46; in the series on MDA-MB-468 [17] it was 5.61.
The like results for `C=C1C(=O)[C@@]23C(=O)[C@@H]4OC[C@]5(C=CCC(C)(C)[C@@H]45)[C@@H]2CC[C@@H]1[C@H]3OC(=O)c1ccc(OC)cc1` were, in that order, 5.72, 5.77, 5.89 and 5.69.
In the same order, the values of `C=C1C(=O)[C@@]23C(=O)[C@@H]4OC[C@]5(C=CCC(C)(C)[C@@H]45)[C@@H]2CC[C@@H]1[C@H]3OC(=O)c1ccc(S(C)(=O)=O)cc1` are 5.89, 5.93, 5.95 and 5.86.
The like results for `C=C1C(=O)[C@@]23C(=O)[C@@H]4OC[C@]5(C=CCC(C)(C)[C@@H]45)[C@@H]2CC[C@@H]1[C@H]3OC(=O)/C=C/c1ccc2c(c1)OCO2` were, in that order, 5.61, 5.52, 5.65 and 5.58.
